PMC6152377, “Structure-Activity Relationships of Acyclic Selenopurine Nucleosides as Antiviral Agents” (Molecules : A Journal of Synthetic Chemistry and Natural …, 2017)
Where two headings read alike, the source gives them in different places.

Assays:
HCMV (Davis, VR-807) [1] = assay: CPE inhibition antiviral assay, HCMV; format: cell-based, human cytomegalovirus (HCMV); conditions: Human betaherpesvirus 5; inhibition of virus-induced cytopathic effect by 50%; strain Davis; MTT readout
Description: (§1) All the final compounds 3a–f and 4a–g were assayed for their antiviral activity against several herpes viruses such as HSV-1 (strain F, VR-733), HSV-2 (strain MS, VR-540), VZV (Ellen, VR-1367), and HCMV (Davis, VR-807). Cytotoxicity data were measured in HEL299 (CCL-137) cells as described previously. […] Antiviral activity was measured using a standard cytopathic (CPE) inhibition assay as described before. Briefly, Vero cells in stationary phase were infected with the virus at a multiplicity of infection of 2–4 CCID50 (50% cell culture inhibitory dose) per each well of 96-well plates. After 2 h of adsorption at 37 °C, the liquid was aspirated and 100 μL of Dulbeco’s modified eagle’s media (DMEM)/2% fetal bovine serum (FBS) containing a compound was applied to each well in duplicate for each concentration and further incubated for 3 days. Antiviral activity was measured by MTT assay and expressed as the EC50. Cytocidal assay was performed as a control experiment for the antiviral assay. It was carried out simultaneously with the antiviral assay described above using mock instead of virus for infection, and cell viability was measured by MTT assay. The concentration of the compound responsible for 50% reduction of cell growth was calculated and expressed as CC50.

[2] = Cytotoxicity (cytocidal) assay, MTT; format: cell-based; conditions: human, 50% reduction of cell viability, mock infection
Description: as §1

VZV (Ellen, VR-1367) [3] = assay: CPE inhibition antiviral assay, VZV; format: cell-based, varicella-zoster virus (VZV); conditions: Human alphaherpesvirus 3; inhibition of virus-induced cytopathic effect by 50%; strain Ellen; MTT readout
Description: as §1

[4] = test system: HSV-2 (strain MS, VR-540); assay: CPE inhibition antiviral assay, HSV-2; format: cell-based; conditions: Human alphaherpesvirus 2, 72 h, inhibition of virus-induced cytopathic effect by 50%, MTT readout, 3 days
Description: as §1

HSV-1 (strain F, VR-733) [5] = assay: CPE inhibition antiviral assay, HSV-1; format: cell-based, herpes simplex virus (HSV)-1; conditions: Human alphaherpesvirus 1, 72 h, inhibition of virus-induced cytopathic effect by 50%, MTT readout, 3 days
Description: as §1

[6] = test system: HSV-2 (strain MS, VR-540); set-up: method as in PMID 20466277; conditions: inhibition of virus-induced cytopathic effect by 50%, ref [11]; cited from earlier work
HCMV (Davis, VR-807) [7] = test system: HCMV (Davis, VR-807); set-up: method as in PMID 20466277; conditions: inhibition of virus-induced cytopathic effect by 50%; strain Davis; ref [11]; cited from earlier work
HEL299 (CCL-137) cells = conditions: read-out: CC50 HEL299, 50% reduction of cell viability, ref [11]; cited from earlier work
HSV-1 (strain F, VR-733) [8] = test system: HSV-1 (strain F, VR-733); set-up: method as in PMID 20466277; conditions: inhibition of virus-induced cytopathic effect by 50%, ref [11]; cited from earlier work
VZV (Ellen, VR-1367) [9] = test system: VZV (Ellen, VR-1367); set-up: method as in PMID 20466277; conditions: inhibition of virus-induced cytopathic effect by 50%; strain Ellen; ref [11]; cited from earlier work

| Structure (SMILES) | EC50 (HCMV (Davis, VR-807) [1]) [µM] | melting point [°C] | CC50 at 3 days ([2]; HEL299 cells) [µM] | EC50 (VZV (Ellen, VR-1367) [3]) [µM] | EC50 [4] [µM] | EC50 (HSV-1 (strain F, VR-733) [5]) [µM] | EC50 [6] [µM] | EC50 (HCMV (Davis, VR-807) [7]) [µM] | CC50 (HEL299 (CCL-137) cells) [µM] | EC50 (HSV-1 (strain F, VR-733) [8]) [µM] | EC50 (VZV (Ellen, VR-1367) [9]) [µM] | CC50 at 3 days ([2]; HEL299 (CCL-137) cells, mock-infected) [µM] |
| --- | --- | --- | --- | --- | --- | --- | --- | --- | --- | --- | --- | --- |
| O=c1[nH]cnc2c1ncn2C[Se]CCO [Compound 3a, 9-((2-Hydroxyethylselanyl)methyl)-1H-purin-6-(9H)-one] | > 100 | 225 to 227 | > 100 | > 100 | > 100 | > 100 | – | – | – | – | – | – |
| CNc1nc(N)nc2c1ncn2C[Se]C(CO)CO [Compound 4e, 2-((2-Amino-6-(methylamio)-9H-purin-9-yl)methylselanyl) propane-1,3-diol] | 32.1 | 140 to 143 | > 100 | > 100 | > 100 | > 100 | – | – | – | – | – | – |
| Nc1nc2c(ncn2C[Se]C(CO)CO)c(=O)[nH]1 [Compound 4d, 9-((1,3-Dihydroxypropan-2-ylselanyl)methyl)-2-amino-1H-purin-6(9H)-one] | – | – | – | – | – | – | > 100 | 53.1 | > 100 | > 100 | > 100 | – |
| Nc1nc(N)c2ncn(C[Se]C(CO)CO)c2n1 [Compound 4f, 2-((2,6-Diamino-9H-purin-9-yl)methylselanyl)propane-1,3-diol] | 34.3 | 193 to 196 | > 100 | > 100 | > 100 | > 100 | – | – | – | – | – | – |
| Nc1nc2c(ncn2C[Se]CCO)c(=O)[nH]1 [Compound 4a, 9-((2-Hydroxyethylselanyl)methyl)-2-amino-1H purin-6(9H)-one] | – | – | – | – | – | – | 6.34 | > 100 | > 100 | 1.47 | > 100 | – |
| CNc1nc(N)nc2c1ncn2C[Se]CCO [Compound 4b, 2-((2-Amino-6-(methylamino)-9H-purin-9-yl)methylselanyl) ethanol] | > 100 | 183 to 185 | > 100 | > 100 | 17.6 | 14.3 | – | – | – | – | – | – |
| Nc1ncnc2c1ncn2C[Se]CCO [Compound 3c, 2-((6-Amino-9H-purin-9-yl)methylselanyl)ethanol] | > 100 | 175 to 177 | > 100 | > 100 | > 100 | > 100 | – | – | – | – | – | – |
| CNc1ncnc2c1ncn2C[Se]CCO [Compound 3b, 2-((6-(Methylamino)-9H-purin-9-yl)methylselanyl) ethanol] | > 100 | 171 to 173 | > 100 | > 100 | > 100 | > 100 | – | – | – | – | – | – |
| Nc1nc(N)c2ncn(C[Se]CCO)c2n1 [Compound 4c, 2-((2,6-Diamino-9H-purin-9-yl)methylselanyl) ethanol] | > 100 | 84 to 86 | > 100 | > 100 | 23.2 | 15.4 | – | – | – | – | – | – |
| Nc1nc(NC2CC2)c2ncn(C[Se]C(CO)CO)c2n1 [Compound 4g, 2-((2-Amino-6-(cyclopropylamino)-9H-purin-9-yl)methylselanyl)propane-1,3-diol] | 41.1 | – | > 100 | > 100 | > 100 | > 100 | – | – | – | – | – | – |
| O=c1[nH]cnc2c1ncn2C[Se]C(CO)CO [Compound 3d, 9-((1,3-Dihydroxypropan-2-ylselanyl)methyl)-1H purin-6(9H)-one] | > 100 | – | > 100 | > 100 | > 100 | > 100 | – | – | – | – | – | – |
| Nc1nc2c(ncn2COCCO)c(=O)[nH]1 [Compound 1, acyclovir, reference compound] | 18.9 | – | – | 6.4 | 1.02 | 0.66 | – | – | – | – | – | – |
| Nc1nc(O)c2ncn(COC(CO)CO)c2n1 [Compound 2, ganciclovir, reference compound] | 2.14 | – | – | 11.1 | 1.4 | 0.9 | – | – | – | – | – | > 100 |
| CNc1ncnc2c1ncn2C[Se]C(CO)CO [Compound 3e, 2-((6-(Methylamino)-9H-purin-9-yl)methylselanyl)propane-1,3-diol] | > 100 | 180 to 183 | > 100 | > 100 | > 100 | > 100 | – | – | – | – | – | – |
| Nc1ncnc2c1ncn2C[Se]C(CO)CO [Compound 3f, 2-((6-Amino-9H-purin-9-yl)methylselanyl)propane-1,3-diol] | 65.2 | 186 to 188 | > 100 | > 100 | > 100 | > 100 | – | – | – | – | – | – |
